The results in this text go back to patent US8809343B2, “Pyrimidine derivative, preparation method and use thereof” (Fudan University, priority 2008, dated 2014).

One data set has as its system HIV-1 IIIB strain. Description: Anti-HIV activity: protection of HIV-infected MT-4 cells from virus-induced cell lesions. The data set is classed as cell-based. The method, then:
(§1) Anti-virus activity of cells in vitro was determined by Rega Institute for Medical of […] Katholleke University, consisting mainly: inhibitory activity towards HIV-infected MT-4 cells and cell toxicity. The method is described below: exert the compound on the HIV-infected ME-4 cells, and determine the protection of the drug on the cell lesions induced by HIV at varied HIV-infection intervals, calculate the half effective concentration IC50, the required concentration that protect 50% of cells from cell lesions induced by HIV. Toxicity determination is carried out in parallel with anti-HIV activity experiments, also in the cultured MT-4 cells, determine the CC50, the concentration that leads 50% of uninfected cells to cell lesions, and calculate the selectivity index SI=CC50/IC50 with the MTT method.
(§2) Anti-HIV activity of various compounds is monitored by the inhibitory efficiency of drugs on the cell lesions induced by HIV. Carry out cell culture with MT-4 cells. The adopted virus strains are HIV-1 IIIB strain and drug-resistant viral strain of […].
(§3) The detailed operation is as follows: the compound is dissolved with DMSO or water and diluted with phosphate buffer saline, 3×10^5 MT-4 cells are cultured with 100 μL various concentrations of compounds for 1 h, then 100 μL suitable virus dilution is added to the compound, and the cells are cultured at 37° C. for 1 h. After being washed for 3 times, the cells are suspended again in the culture media containing or not compounds individually. Subsequently, the cells are transferred to the atmosphere containing 5% CO2 and cultured for 7 days at 37° C., and culture media containing or not compounds are used to replace or supplement the culture solution on the third day after infection. Kinds of culture conditions should be duplicated. The cell lesions caused by virus are monitored with reverse light microscopy everyday. Typically, the virus dilution applied in the present experiments generally cause cell lesion on the fifth day after infection. […] It should be emphasized that, when the compound is poorly water-soluble and can only be dissolved in DMSO, the ratio of DMSO to water is generally below 10% (the final concentration of DMSO in MT-4 cell culture media is smaller than 2%). Because DMSO can influence the anti-virus activity of the tested compounds, blank tests on the solution containing the same concentration of DMSO should be conducted in parallel. Additionally, the final concentration of DMSO is far below the concentration required to influence the replication of HIV-1 in T cells.

Data set [1] is described as follows: Cell toxicity in uninfected MT-4 cells (MTT method). Conditions: human. The data set is classed as cell-based. The method, then: as §1, §3
For orientation: Tetrazolium assays rely on reduction of a dye to a coloured formazan, in cell work by metabolically active cells.

For data set [2], the system named is drug-resistant viral strain of […]. Description: Anti-HIV activity in MT-4 cells, drug-resistant viral strain. It is filed as cell-based, HIV-1. How it is done: as §1, §2, §3
The next data set concerns MT-4 cells. Description: Cell toxicity in uninfected MT-4 cells (MTT method). The data set is classed as cell-based. Conditions: Table 1. How it is done: as §1, §3
In a further data set the target is T1, HIV-1 RT (Human immunodeficiency virus type 1 group M subtype B, UniProt P03366).
T1 construct: Screening for in vitro activity of anti HIV-1 reverse transcriptase (HIV-1 RT); made in house
Description: In vitro anti HIV-1 reverse transcriptase screening (Biotin-dUTP, OD450). The data set is classed as biochemical.

[3] abbreviates: HIV-1 IIIB, MT-4 cells, Table 1.
The mark [4] stands for this setting: Human immunodeficiency virus 1, IIIB, MT4, read-out: EC50 HIV-1(IIIB).
Where [5] appears, read: Human immunodeficiency virus 1, MT4, read-out: EC50 103N + 181C, MT-4 cells, Table 1.
[6] abbreviates: MT-4 cells, Table 1, read-out: EC50 HIV-1(IIIB).
The mark [7] stands for this setting: MT-4 cells, Table 1, read-out: EC50 103N + 181C.
Where [8] appears, read: Human immunodeficiency virus 1, IIIB, MT4, read-out: EC50 WT(IIIB).
The mark [9] stands for this setting: Human immunodeficiency virus 1, MT4, read-out: EC50 103N + 181C, MT-4 cells, Table 2.

pEC50, pIC50: −log10 of the molar value. Where two headings read alike, the source gives them in different places. Where only a bound is given, the exact number is not on record here.

Usually pEC50 stands for −log10 of the EC50, conventionally taken in molar units. One may read the CC50 as the concentration at which the toxic effect on the cells reaches its halfway point. Read a low CC50 as greater toxicity to the cells. For `N#Cc1ccc(Nc2nccc(Oc3cccc4cccnc34)n2)cc1` [Compound 1], the “SI (Selectivity index, the ratio of CC50/IC50)” value in the data set with HIV-1 IIIB strain (setting [3]) is listed as 13393. The pEC50 with HIV-1 IIIB strain (setting [4]) was 8.54; in data set [2] (setting [5]), at most 4.41. Besides, it took 38.8 µM to reach half-maximal cytotoxicity in data set [1] (uninfected MT-4 cells, Table 1) (CC50 at 7 days).

With `N#Cc1ccc(Nc2nc(Cl)cc(Oc3cccc4cccnc34)n2)cc1` [Compound 2], in the data set on HIV-1 IIIB strain (setting [3]), the “SI (Selectivity index, the ratio of CC50/IC50)” value is on record as 1031. The pEC50 in the data set with HIV-1 IIIB strain (setting [4]) is 7.71; in data set [2] (setting [5]) it was at most 4.70. This compound also had a CC50 at 7 days in data set [1] (uninfected MT-4 cells, Table 1) of 20.1 µM.

`CNc1cc(Oc2cccc3cccnc23)nc(Nc2ccc(C#N)cc2)n1` [Compound 3]: the “SI (Selectivity index, the ratio of CC50/IC50)” value with HIV-1 IIIB strain (setting [3]) was determined as 6089. Moreover, the values for the pEC50 (in the data set with HIV-1 IIIB strain (setting [4]); in data set [2] (setting [5])) were 8.05 and at most 4.27, respectively. This compound also displayed a CC50 at 7 days in data set [1] (uninfected MT-4 cells, Table 1) of 54.2 µM.

On to `COc1cc(Oc2cccc3cccnc23)nc(Nc2ccc(C#N)cc2)n1` [Compound 4], for which the “SI (Selectivity index, the ratio of CC50/IC50)” value in the data set on HIV-1 IIIB strain (setting [3]) is 3299. Besides, the pEC50 in the data set with HIV-1 IIIB strain (setting [4]) is 7.89; in data set [2] (setting [5]), at most 4.37. Further, the 50% cytotoxic concentration (CC50) at 7 days in data set [1] (uninfected MT-4 cells, Table 1) was determined as 42.2 µM.

As to `N#Cc1ccc(Nc2nccc(Oc3ccc4cc(C#N)ccc4c3Br)n2)cc1` [Compound 15], the pEC50 in the data set with HIV-1 IIIB strain (setting [6]) was 8.80; in data set [2] (setting [7]), 6.62. The CC50 with MT-4 cells stood at 290 µM.

In the case of `N#Cc1ccc(Nc2nccc(Oc3cc4ccc(C#N)cc4cc3Br)n2)cc1` [Compound 16], the negative-log EC50 (pEC50) in the data set on HIV-1 IIIB strain (setting [6]) is 8.96; in data set [2] (setting [7]), under 4.25. It took 55.4 µM to reach half-maximal cytotoxicity in the data set with MT-4 cells (CC50).

`CNc1nc(Nc2ccc(C#N)cc2)nc(Oc2ccc3ccccc3c2Br)c1C` [Compound 17]: the figures for the pEC50 (in the data set with HIV-1 IIIB strain (setting [6]); in data set [2] (setting [7])) were 7.81 and 5.21, respectively. This compound returned a CC50 in the data set with MT-4 cells of 177 µM.

As for `CCc1c(NC)nc(Nc2ccc(C#N)cc2)nc1Oc1ccc2cc(C#N)ccc2c1Br` [Compound 18], the results for the pEC50 (with HIV-1 IIIB strain (setting [6]); in data set [2] (setting [7])) were 8.21 and under 4.23, respectively. Further, half-maximal cytotoxicity with MT-4 cells (CC50) was put at 304 µM.

`CNc1nc(Nc2ccc(C#N)cc2)nc(Oc2ccc3cc(C#N)ccc3c2)c1C(C)C` [Compound 19]: the pEC50 in the data set with HIV-1 IIIB strain (setting [6]) was 8.12; in data set [2] (setting [7]), 5.34. For the same compound, in the data set with MT-4 cells, it took 265 µM to reach half-maximal cytotoxicity (CC50).

The term pIC50 denotes the negative decadic logarithm of the IC50, by convention in mol/L. A low value points to a large IC50. For `COc1c(Oc2ccnc(Nc3ccc(C#N)cc3)n2)ccc2cc(C#N)ccc12` [Compound 20], the pEC50 in the data set on HIV-1 IIIB strain (setting [8]) is 8.92; in data set [2] (setting [9]), 6.42. The “SI (Selectivity index, the ratio of CC50/IC50)” value in the data set with HIV-1 IIIB strain (WT(IIIB), Table 2) is on record as “≧134032”. The pIC50 against HIV-1 RT was 5.64. This compound gave a CC50 at 7 days in data set [1] (uninfected MT-4 cells, Table 2) of 161 µM.

As for `COc1cc2cc(C#N)ccc2cc1Oc1ccnc(Nc2ccc(C#N)cc2)n1` [Compound 21], in the data set on HIV-1 IIIB strain (setting [8]), the pEC50 was 9.05. Also, the “SI (Selectivity index, the ratio of CC50/IC50)” value in the data set on HIV-1 IIIB strain (WT(IIIB), Table 2) is listed as over 158228. Also, the negative-log IC50 (pIC50) against HIV-1 RT is 5.88. This compound had a CC50 at 7 days in data set [1] (uninfected MT-4 cells, Table 2) of 142 µM.

With `COc1cc2cc(C#N)ccc2c(OC)c1Oc1ccnc(Nc2ccc(C#N)cc2)n1` [Compound 22], the negative logarithm of the EC50 (pEC50) with HIV-1 IIIB strain (setting [8]) was 9.10; in data set [2] (setting [9]), 6.80. Also, the “SI (Selectivity index, the ratio of CC50/IC50)” value in the data set with HIV-1 IIIB strain (WT(IIIB), Table 2) is reported as “≧25000”. In addition, at HIV-1 RT, the negative-log IC50 (pIC50) was 7.02. The compound further had a CC50 at 7 days in data set [1] (uninfected MT-4 cells, Table 2) of 20 µM.

As to `N#Cc1ccc(Nc2nccc(Oc3ccc4cc(C#N)ccc4c3Cl)n2)cc1` [Compound 23], the pEC50 with HIV-1 IIIB strain (setting [8]) was 8.74; in data set [2] (setting [9]), 6.15. Moreover, the “SI (Selectivity index, the ratio of CC50/IC50)” value in the data set on HIV-1 IIIB strain (WT(IIIB), Table 2) worked out at 47964. This compound gave a CC50 at 7 days in data set [1] (uninfected MT-4 cells, Table 2) of 86.3 µM.

For `COc1cc2cc(C#N)ccc2c(Cl)c1Oc1ccnc(Nc2ccc(C#N)cc2)n1` [Compound 24], the negative logarithm of the EC50 (pEC50) with HIV-1 IIIB strain (setting [8]) is 9.22; in data set [2] (setting [9]), 6.82. For the same compound, in the data set with HIV-1 IIIB strain (WT(IIIB), Table 2), the “SI (Selectivity index, the ratio of CC50/IC50)” value was “≧25701”. Further, in data set [1] (uninfected MT-4 cells, Table 2), the CC50 at 7 days was found to be 15.4 µM.

In the case of `O=C1Nc2ccc(Cl)cc2[C@@](C#CC2CC2)(C(F)(F)F)O1` [EFV, efavirenz, reference compound], the “SI (Selectivity index, the ratio of CC50/IC50)” value in the data set on HIV-1 IIIB strain (setting [3]) is on record as over 1434; in the data set with HIV-1 IIIB strain (HIV-1 IIIB, MT-4 cells, Table 3), over 2174; in the data set with HIV-1 IIIB strain (WT(IIIB), Table 2) it was over 1434. Besides, the negative logarithm of the EC50 (pEC50) in the data set with HIV-1 IIIB strain (Human immunodeficiency virus 1, IIIB, MT4, MT-4 cells, Table 1, read-out: EC50 HIV-1(IIIB)) is 8.52; with HIV-1 IIIB strain (Human immunodeficiency virus 1, IIIB, MT4, MT-4 cells, Table 2, read-out: EC50 WT(IIIB)), 8.52; in data set [2] (setting [5]), 3.25; in data set [2] (setting [9]) it was 6.25. Moreover, the half-maximal cytotoxic concentration (CC50) at 7 days in data set [1] (Table 1) was 4.3 µM; in data set [1] (Table 3), over 6.34 µM.
